Test results as given in patent US20220354834A1, “METHODS AND MATERIALS FOR TREATING NEUROTOXICITY” (Cavion, Inc., priority 2019, published 2022).

What was measured:
[1] = tested on: β-tubulin; assay: β-tubulin polymerization assay in sciatic nerve; format: in vivo, Wistar rat; details: week 8
Procedure: (§1) Wistar female rats (n=52) (Envigo, Correzzano, Italy) at 10-11 weeks of age were utilized. The study was divided into 2 phases of 4 weeks each. […] Body weight was measured periodically during phase 1 from baseline (day 1) to day 28. At baseline and conclusion of phase 1 (day 28), nerve conduction velocity (NCV) was performed on caudal and sciatic nerves and Dynamic Aesthesiometer Test (DAT) measured mechanical threshold (MT) of the hind paw. […] Body weight was measured periodically from baseline (day 28) to day 56 (termination). NCV and MT were measured in all 4 groups at baseline and on day 35 and 56. […] At termination, sciatic nerves were obtained for β-tubulin polymerization and skin samples were procured for intraepidermal nerve fiber (IENF) density and histopathology.
(§2) At day 56, animals were euthanized by CO2 inhalation and tissue samples were procured from 4 rats per group. Right sciatic nerve was frozen in liquid nitrogen for β-tubulin polymerization assay and plantar glabrous skin samples were collected for IENF density.
Protein extracts from sciatic nerves were processed similar to the proteasome assay except for lysis buffer that contained freshly added protease and […] (10 mM sodium orthovanadate, 4 mM phenylmethylsulfonyl fluoride, 1% aprotinin and 20 mM sodium pyrophosphate). Protein extracts were centrifuged (14000 rpm for 10 minutes at 4° C.) to separate soluble (S) free tubulin fractions from polymerized (P) fractions. Supernatants were collected and pellets of polymerized tubulin were resuspended by sonication for 20 seconds in a volume of lysis buffer supplemented with 0.5% sodium deoxycholate (equivalent to S fraction). Protein aliquots (10 μg) were placed onto 13% SDS-PAGE and, after electrophoresis, were transferred to nitrocellulose filters. Immunoblotting analysis was performed using mouse anti-β-tubulin antibody. After incubation with primary antibody, membrane was washed and incubated with horseradish peroxidase conjugated to […] (Perkin Elmer Italia SPA, Monza, Italy). The ECL chemiluminescence system (Amersham GE Healthcare Europe GmbH, Milano, Italy) was used for detection. Band intensity was quantified with Gel Logic 100 Image System (Eastman Kodak, Rochester, N.Y., USA). Final mean values were obtained from triplicate experiments and data were expressed as percentage of P/P+S in treated rats compared to controls.

[2] = CIPN-reversal study: body weight, tolerability, mortality; format: in vivo
Procedure: Rats were housed 2-3 per cage under similar environmental conditions as nude mice in the interference study.
as §1

[3] = tested on: RPMI-8226 human myeloma xenografts; assay: In vivo BTZ and combination (BTZ and CX-8998) anti-tumor (interference) study, tumor volume; design: species or system athymic nude mouse
Text: (§3) Care and husbandry of mice complied with USDA (U.S. Department of Agriculture) Animal Welfare Act and START IACUC (Institutional Animal Care and Use Committee) regulations. The protocol was reviewed and approved by START IACUC. Mice were individually housed in Sealsafe® Plus ventilated cages (Techniplast, West Chester, Pa., USA) and fed with Teklad 2919 (Envigo, Somerset, N.J., USA), irradiated, 19% protein, 9% fat and 4% fiber mouse chow. Mice were maintained under controlled environmental conditions (22+/−2° C. temperature, 55+/−10% relative humidity and 12-hour light/dark cycle (7 a.m.-7 p.m.).
(§4) South Texas Accelerated Research Therapeutics (START) (San Antonio, Tex., USA) conducted this study. […] The 30 mg/kg dose was tolerated in preclinical safety studies and anticipated to result in exposures in excess of the therapeutic range for 28 days. Body weight, TV and animal observations were collected twice per week to day 18 (termination) for vehicle control mice and twice per week to day 28 (termination) for each of the other 3 groups. Mean±SD body weight and TV were analyzed with Kruskal-Wallis and Dunn multiple comparison test at day 18 and with Mann Whitney test at day 28 with statistical significance at p<0.05.

[4] = tested on: hind paw mechanical allodynia (BTZ-induced CIPN); assay: CIPN-reversal study: Dynamic Aesthesiometer Test, mechanical threshold; format: in vivo, Wistar rat
Procedure: as §1
MT was assessed with the DAT device (Model 37450, Ugo Basile Biological Instruments, Comerio, Italy). After acclimation, a servo-controlled pointed metallic filament (0.5 mm diameter) was placed on plantar surface of the hind paw and exerted a progressive punctate pressure up to 50 grams within 20 seconds. The pressure elicited a voluntary hind paw withdrawal response that was recorded and represented MT index. MT was collected alternatively on each side every 2 minutes on 3 occasions to yield a mean value. Mean MT values represented maximum pressure (grams) tolerated by each rat. Exposure of each animal to mechanical stimulus was limited to 30 seconds.

[5] = tested on: intraepidermal nerve fibers (BTZ-induced CIPN); assay: IENF density and histopathology of plantar glabrous skin; format: in vivo, Wistar rat; details: for IENF DENSITY, Difference in rank sum (Dunn's Multiple Comparison Test): week 8
Procedure: as §1, §2
Plantar glabrous skin samples (5 mm) from hind paws were fixed in 2% PLP (paraformaldehyde-lysine-sodium periodate) for 24 hours at 4° C. and cryoprotected overnight. Samples were serially cut with a cryostat to yield 20 μm sections. Three sections from each footpad were randomly selected and immunostained with rabbit polyclonal anti-protein gene product 9.5 (PGP 9.5; GeneTex, Irvine, Calif., USA) in combination with biotinylated anti-rabbit IgG and Vector SG substrate kit peroxidase (Vector Laboratories, Burlingame, Calif.) using a free-floating protocol. A blinded observer counted total number of immune-positive IENF in each section under light microscopy at high magnification with a microscope video camera. Individual fibers were counted that crossed dermal-epidermal interface. Secondary branches within epidermis were excluded. Length of epidermis was measured to generate linear density of IENF/millimeter as described elsewhere (Canta et al., 2016 Neurobiol Aging 45:136-148).

[6] = In vivo anti-tumor (interference) study: body weight; design: species or system athymic nude mouse; details: 28 days
Text: as §3, §4

[7] = BTZ vs BTZ+ CX-8998 3 mg/kg, P > 0.05 ns
[8] = BTZ vs BTZ+ CX-8998 10 mg/kg, P > 0.05 ns
[9] = BTZ vs BTZ+ CX-8998 30 mg/kg, P > 0.05 ns
[10] = BTZ+ CX-8998 3 mg/kg vs BTZ+ CX-8998 10 mg/kg, P > 0.05 ns
[11] = CTRL vs BTZ+ CX-8998 3 mg/kg, P < 0.05 *
[12] = CTRL vs BTZ+ CX-8998 10 mg/kg, P < 0.05 *
[13] = CTRL vs BTZ+ CX-8998 30 mg/kg, P > 0.05 ns
[14] = BTZ+ CX-8998 3 mg/kg vs BTZ+ CX-8998 30 mg/kg, P > 0.05 ns
[15] = BTZ+ CX-8998 10 mg/kg vs BTZ+ CX-8998 30 mg/kg, P > 0.05 ns
[16] = CTRL vs BTZ+ CX-8998 3 mg/kg, P > 0.05 ns

Q: What does the source list for `CC(C)c1ccc(CC(=O)N[C@H](C)c2ccc(OCC(F)(F)F)cn2)cc1` [CX-8998, (R)-2-(4-Isopropylphenyl)-N-(1-(5-(2,2,2-Trifluoroethoxy)pyridin-2-yl)ethyl)acetamide]?
A: TUBULIN POLYMERIZATION, Difference in rank sum (Dunn's Multiple Comparison Test) [1, 7]: −4.000; TUBULIN POLYMERIZATION, Difference in rank sum (Dunn's Multiple Comparison Test) [1, 8]: −4.000; TUBULIN POLYMERIZATION, Difference in rank sum (Dunn's Multiple Comparison Test) [1, 9]: 15.00; TUBULIN POLYMERIZATION, Difference in rank sum (Dunn's Multiple Comparison Test) [1, 10]: 0.000; TUBULIN POLYMERIZATION, Difference in rank sum (Dunn's Multiple Comparison Test) ([1]; BTZ+ CX-8998 3 mg/kg vs BTZ+ CX-8998 30 mg/kg, P < 0.05 *): 19.00; TUBULIN POLYMERIZATION, Difference in rank sum (Dunn's Multiple Comparison Test) ([1]; BTZ+ CX-8998 10 mg/kg vs BTZ+ CX-8998 30 mg/kg, P < 0.05 *): 19.00; TUBULIN POLYMERIZATION, Difference in rank sum (Dunn's Multiple Comparison Test) [1, 11]: −15.64; TUBULIN POLYMERIZATION, Difference in rank sum (Dunn's Multiple Comparison Test) [1, 12]: −15.46; TUBULIN POLYMERIZATION, Difference in rank sum (Dunn's Multiple Comparison Test) [1, 13]: 0.2576; tolerability ([2]; BTZ in combination with CX-8998): well tolerated; mortality (animals) ([2]; one each in combinations of BTZ with 3 mg/kg and 10 mg/kg CX-8998): two; body weight change ([2]; weeks 5 and 8, BTZ in combination with 3, 10 and 30 mg/kg CX-8998): not significantly different; TUMOR GROWTH DAY 18, Difference in rank sum (Dunn's Multiple Comparison Test) ([3]; BTZ vs BTZ+ CX-8998, P > 0.05 ns): −3.000; TUMOR GROWTH DAY 18, Difference in rank sum (Dunn's Multiple Comparison Test) ([3]; Vehicle Control vs BTZ+ cx-8998, P < 0.05 *): 10.13; DYNAMIC TEST 5 WEEKS, Difference in rank sum (Dunn's Multiple Comparison Test) [4, 7]: −13.99; DYNAMIC TEST 8 WEEKS, Difference in rank sum (Dunn's Multiple Comparison Test) [4, 7]: −15.63; DYNAMIC TEST 5 WEEKS, Difference in rank sum (Dunn's Multiple Comparison Test) [4, 8]: −0.7411; DYNAMIC TEST 8 WEEKS, Difference in rank sum (Dunn's Multiple Comparison Test) [4, 8]: −6.500; DYNAMIC TEST 5 WEEKS, Difference in rank sum (Dunn's Multiple Comparison Test) [4, 9]: −6.679; DYNAMIC TEST 8 WEEKS, Difference in rank sum (Dunn's Multiple Comparison Test) [4, 9]: −9.688; DYNAMIC TEST 8 WEEKS, Difference in rank sum (Dunn's Multiple Comparison Test) [4, 10]: 9.125; DYNAMIC TEST 5 WEEKS, Difference in rank sum (Dunn's Multiple Comparison Test) [4, 14]: 7.313; DYNAMIC TEST 8 WEEKS, Difference in rank sum (Dunn's Multiple Comparison Test) [4, 14]: 5.938; DYNAMIC TEST 5 WEEKS, Difference in rank sum (Dunn's Multiple Comparison Test) [4, 15]: −5.938; DYNAMIC TEST 8 WEEKS, Difference in rank sum (Dunn's Multiple Comparison Test) [4, 15]: −3.188; DYNAMIC TEST 5 WEEKS, Difference in rank sum (Dunn's Multiple Comparison Test) [4, 16]: 3.250; DYNAMIC TEST 8 WEEKS, Difference in rank sum (Dunn's Multiple Comparison Test) [4, 16]: 7.563; DYNAMIC TEST 5 WEEKS, Difference in rank sum (Dunn's Multiple Comparison Test) [4, 12]: 16.50; DYNAMIC TEST 8 WEEKS, Difference in rank sum (Dunn's Multiple Comparison Test) [4, 12]: 16.69; DYNAMIC TEST 5 WEEKS, Difference in rank sum (Dunn's Multiple Comparison Test) [4, 13]: 10.56; DYNAMIC TEST 8 WEEKS, Difference in rank sum (Dunn's Multiple Comparison Test) [4, 13]: 13.50; IENF DENSITY, Difference in rank sum (Dunn's Multiple Comparison Test) [5, 7]: −10.93; IENF DENSITY, Difference in rank sum (Dunn's Multiple Comparison Test) [5, 8]: −0.04167; IENF DENSITY, Difference in rank sum (Dunn's Multiple Comparison Test) ([5]; BTZ vs BTZ+ CX-8998 30 mg/kg, P < 0.05 *): −20.54; IENF DENSITY, Difference in rank sum (Dunn's Multiple Comparison Test) [5, 10]: 10.89; IENF DENSITY, Difference in rank sum (Dunn's Multiple Comparison Test) [5, 14]: −9.611; IENF DENSITY, Difference in rank sum (Dunn's Multiple Comparison Test) ([5]; BTZ+ CX-8998 10 mg/kg vs BTZ+ CX-8998 30 mg/kg, P < 0.01 **): −20.50; IENF DENSITY, Difference in rank sum (Dunn's Multiple Comparison Test) [5, 11]: 18.06; IENF DENSITY, Difference in rank sum (Dunn's Multiple Comparison Test) ([5]; CTRL vs BTZ+ CX-8998 10 mg/kg, P < 0.001 ***): 28.94; IENF DENSITY, Difference in rank sum (Dunn's Multiple Comparison Test) [5, 13]: 8.444; body weight ([6]; 1 mg/kg BTZ in combination with 30 mg/kg CX-8998 orally once daily): transient body weight loss during first two weeks of treatment and no weight gain at day 18 and 28

Q: Which results are given for `CC(C)C[C@H](NC(=O)[C@H](Cc1ccccc1)NC(=O)c1cnccn1)B(O)O` [BTZ, bortezomib, reference compound]?
A: TUBULIN POLYMERIZATION, Difference in rank sum (Dunn's Multiple Comparison Test) ([1]; CTRL vs BTZ, P < 0.05 *): −14.74; β-tubulin polymerization (%) ([1]; BTZ alone vs control, p<0.05): significantly increased; body weight change ([2]; rat, in vivo): not significantly different; tolerability ([2]; rat, in vivo): well tolerated; TUMOR GROWTH DAY 18, Difference in rank sum (Dunn's Multiple Comparison Test) ([3]; Vehicle Control vs BTZ, P < 0.001 ***): 13.13; tumor volume (TV) ([3]; day 18, BTZ alone 1 mg/kg vs vehicle control, p<0.001): significantly reduced TV; tumor volume (TV) trend ([3]; day 18 through day 28, BTZ alone): tended to increase; DYNAMIC TEST 8 WEEKS, Difference in rank sum (Dunn's Multiple Comparison Test) ([4]; CTRL vs BTZ, P < 0.001 ***): 23.19; DYNAMIC TEST 5 WEEKS, Difference in rank sum (Dunn's Multiple Comparison Test) ([4]; CTRL vs BTZ, P < 0.05 *): 17.24; mechanical threshold (MT) in hind paws ([4]; week 4, BTZ vs control, p<0.0001): significantly reduced; IENF density (number of fibers per millimeter) ([5]; BTZ alone vs control, p<0.001): significantly decreased; IENF DENSITY, Difference in rank sum (Dunn's Multiple Comparison Test) ([5]; CTRL vs BTZ, P < 0.001 ***): 28.99; body weight ([6]; 1 mg/kg BTZ alone iv twice weekly): transient body weight loss during first two weeks of treatment and no weight gain at day 18 and 28
